{"source": "PubChem BioAssay AID2141", "about": "(Sanford-Burnham Center for Chemical Genomics, 2009)", "note": "Calls of active or inactive are those of the source. No rule for the calls is given here.", "data": [{"target": "E3 ubiquitin-protein ligase SIAH1 (Homo sapiens) (UniProt Q8IUQ4)", "test": "Siah-1 binding antagonists, dose response, biochemical, TR-FRET (AID 2141)", "details": "TR-FRET biochemical assay", "values": [{"smiles": "Cc1coc2c(C)c3oc(=O)c(CCC(=O)N[C@@H](C)C(=O)N[C@@H](Cc4ccccc4)C(=O)O)c(C)c3cc12", "IC50": "11.4 µM"}, {"smiles": "O=C1C=C(NCc2ccccc2)c2ccccc2C1=O", "IC50": "15.6 µM"}, {"smiles": "Cc1ccc(NC(=O)CCC(=O)NNC(=O)c2ccccc2[N+](=O)[O-])c(C)c1", "IC50": "> 200 µM (inactive)"}, {"smiles": "Cc1ccn2c(C(=O)CSc3ccc(Cl)cc3Cl)c(C)nc2c1", "IC50": "> 200 µM (inactive)"}, {"smiles": "CCCCn1c(NS(=O)(=O)c2ccccc2)c(S(=O)(=O)c2ccc(C)cc2)c2nc3ccccc3nc21", "IC50": "1.6 µM"}, {"smiles": "COC(=O)c1cc(NC(=O)c2ccccc2)c(=O)oc1/C=C/Nc1ccc(Oc2ccccc2)cc1", "IC50": "> 200 µM (inactive)"}, {"smiles": "O=C(CSc1ccc(Br)c2cccc(Cl)c12)Nc1ccc(S(=O)(=O)Nc2nccs2)cc1", "IC50": "> 200 µM (inactive)"}, {"smiles": "CN(C)c1cccc2c(C=C(C#N)C#N)ccc(N(C)C)c12", "IC50": "inactive"}, {"smiles": "COc1cc(/C=C2/SC(=S)N(Cc3ccccc3)C2=O)cc(Cl)c1O", "IC50": "> 200 µM (inactive)"}, {"smiles": "CC1CCCCC1NC(=O)CCS(=O)(=O)c1ccc2c(c1)NC(=O)CO2", "note": "(stereo not given)", "IC50": "> 200 µM (inactive)"}, {"smiles": "CN1C(=O)NC(c2ccccc2[N+](=O)[O-])C2=C1CCCC2=O", "note": "(stereo not given)", "IC50": "> 200 µM (inactive)"}, {"smiles": "Cc1cc(C)c(C#N)c(Nc2ccccc2C)n1", "IC50": "> 200 µM (inactive)"}, {"smiles": "CC(C)(C)c1ccc(C(CC(=O)O)NC(=O)Cc2ccc(F)cc2)cc1", "note": "(stereo not given)", "IC50": "4.55 µM"}, {"smiles": "CCOC(=O)C1(C)C=C(Nc2ccc(O)cc2)C(=O)N1c1ccc(O)cc1", "note": "(stereo not given)", "IC50": "inactive"}, {"smiles": "O=C(Nc1ccc(Oc2ccsc2C(=O)O)cc1)c1ccccc1F", "IC50": "inactive"}, {"smiles": "N#C/C(=C\\c1c(F)cccc1Cl)C(=O)NC1CC1", "IC50": "> 200 µM (inactive)"}, {"smiles": "Oc1c(Br)cc(Br)cc1CNc1ccc(F)cc1", "IC50": "inactive"}, {"smiles": "COc1cccc(CCC(=O)N(C)C2CCCN(Cc3ccccc3F)C2)c1", "note": "(stereo not given)", "IC50": "> 200 µM (inactive)"}, {"smiles": "Oc1ccc(N=Cc2ccc(OCc3ccccc3)cc2)cc1", "IC50": "3.74 µM"}, {"smiles": "CC(=O)c1ccc(S(=O)(=O)Nc2ccc(-c3ccc4nnc(C)n4n3)cc2)cc1", "IC50": "9.93 µM"}, {"smiles": "N#CC1C=Cc2ccccc2N1C(=O)c1ccccc1", "note": "(stereo not given)", "IC50": "> 200 µM (inactive)"}, {"smiles": "COCCOC(=O)c1sc(=S)n(CCOC)c1N", "IC50": "10.6 µM"}, {"smiles": "COCCn1nnnc1C(c1cc2ccc(OC)cc2[nH]c1=O)N1CCc2ccccc2C1", "note": "(stereo not given)", "IC50": "11.8 µM"}, {"smiles": "CC1(C)Cc2c(sc(/N=C/N3CCCCCC3)c2C#N)C(C)(C)N1", "IC50": "> 200 µM (inactive)"}, {"smiles": "CC1CCN(C(=O)C2CCC(C)(C(=O)O)C2(C)C)CC1", "note": "(stereo not given)", "IC50": "> 200 µM (inactive)"}, {"smiles": "COc1cc(/C=C(\\C#N)c2nc3ccccc3[nH]2)ccc1OC(=O)c1ccco1", "IC50": "6.22 µM"}, {"smiles": "O=C(NCc1c(F)cccc1F)c1cc(COc2c(F)cccc2F)on1", "IC50": "> 200 µM (inactive)"}, {"smiles": "O=C(O)CCCNc1cc(N2CCN(C(=O)c3ccco3)CC2)c2noc3c2c1C(=O)c1ccccc1-3", "IC50": "5.41 µM"}, {"smiles": "CCOC(=O)C1=C(C)N=c2s/c(=C\\c3ccc(OCC(=O)O)cc3)c(=O)n2C1c1ccc(Cl)cc1", "note": "(stereo not given)", "IC50": "> 200 µM (inactive)"}, {"smiles": "CSc1ccccc1C(=O)NC(C)c1ccc(-n2ccnc2)cc1", "note": "(stereo not given)", "IC50": "inactive"}, {"smiles": "O=C(O)c1cc(Cl)c(Cl)cc1C(=O)Nc1cccc2cccnc12", "IC50": "7.1 µM"}, {"smiles": "CCC(C)N1C(=O)/C(=C/c2c(NCCCOC(C)C)nc3c(C)cccn3c2=O)SC1=S", "note": "(stereo not given)", "IC50": "> 200 µM (inactive)"}, {"smiles": "CS(=O)(=O)N1CCN(c2ccc([N+](=O)[O-])c(SCc3ccco3)c2)CC1", "IC50": "> 200 µM (inactive)"}, {"smiles": "O=C(Nc1cccc(Oc2ccc(C(=O)O)c(C(=O)O)c2)c1)c1ccc(-c2ccccc2)cc1", "IC50": "11.6 µM"}, {"smiles": "O=S(=O)(O)c1cc(O)c2c(O)c(N=Nc3cc(Cl)ccc3O)c(S(=O)(=O)O)cc2c1", "IC50": "2.14 µM"}, {"smiles": "CCCCn1c(NC(=O)c2ccc(Br)o2)c(C(=O)OCC)c2nc3ccccc3nc21", "IC50": "2.04 µM"}, {"smiles": "COc1ccc(C(C(=O)NCc2ccccc2)N(Cc2ccco2)C(=O)c2cnccn2)cc1", "note": "(stereo not given)", "IC50": "> 200 µM (inactive)"}, {"smiles": "O=C(CC1Nc2cccc3cccc(c23)NC1=O)Nc1ccccc1", "note": "(stereo not given)", "IC50": "6.36 µM"}, {"smiles": "Nc1c(C(=O)NCc2ccco2)c2nc3ccccc3nc2n1CCc1ccccc1", "IC50": "1.77 µM"}, {"smiles": "COc1cc(CC(=O)NCc2ccc3c(c2)OCO3)cc(OC)c1OC", "IC50": "inactive"}, {"smiles": "COc1cc(CNc2ccc(O)cc2)cc(Br)c1OCc1ccccc1F", "IC50": "4.66 µM"}, {"smiles": "CCCCn1c(NC(=O)c2ccco2)c(S(=O)(=O)c2ccc(C)cc2)c2nc3ccccc3nc21", "IC50": "> 200 µM (inactive)"}, {"smiles": "O=C(O)c1ccc(/C=N/NC(=O)c2ccc(CN3c4cccc5cccc(c45)S3(=O)=O)cc2)cc1", "IC50": "18.3 µM"}, {"smiles": "N#Cc1c(NC(=O)c2ccc(Br)o2)n(-c2ccccc2)c2nc3ccccc3nc12", "IC50": "3.73 µM"}, {"smiles": "O=C(Nc1ccc(Br)cc1)c1ccc(N2C(=O)C3CC=CCC3C2=O)cc1", "note": "(stereo not given)", "IC50": "4.27 µM"}, {"smiles": "O=C1CCCC(O)=C1N=Nc1ccc(C(=O)O)cc1", "IC50": "< 1.56 µM"}, {"smiles": "CN1/C(=C\\C=C\\C2=[N+](C)c3ccc4ccccc4c3C2(C)C)C(C)(C)c2ccccc21", "IC50": "> 200 µM (inactive)"}, {"smiles": "O=C(/C=C/c1ccco1)OCc1nnc(-c2ccccc2)o1", "IC50": "4.37 µM"}, {"smiles": "Oc1ccc(N=Cc2sc3ccccc3c2Cl)cc1", "IC50": "14.9 µM"}, {"smiles": "Cc1ccc(-n2cccn2)c([C@@H]2C[C@H]3CN(C)C(=O)[C@]34CCCN24)c1", "IC50": "> 200 µM (inactive)"}]}]}
